Measurements reported in patent US5141865A, “Monoclonal antibodies which bind thromboxane A2 receptor antagonists and diagnostic methods based thereon” (priority 1989, dated 1992).

Tested on: monoclonal antibody MCTX1
Assay: Competitive radioimmunoassay (RIA) with MCTX1 and radiolabel-1; standard curve and cross-reactivity
Format: binding, mouse
Details: for percent cross-reactivity with MCTX1: ED50 of cross-reactant relative to ED50 of Compound I x 100, standards and cross-reactants in PBS
Procedure: Sera from immunized mice and media collected from wells containing HAT selected hybridomas were tested for the presence of antibodies recognizing Compound I by RIA. Undiluted media (50 μl) was incubated overnight at 4° C. with PBS (50 μl), normal human sera (50 μl) and [^125 I]-iodohistamine - Compound I (radiolabel-1) in PBS (200 μl, 50,000 CPM). After incubation, 1.0 ml of PEG 8000 (Fisher Scientific, Fairlawn, N.J.) (25% wt/vol) was added as separant; samples were centrigued at room temperature at 2000×g for 10 to 15 minutes and the supernatant decanted. Radioactivity associated with the precipitate was then determined using an APEX automatic gamma counter (ICN Micromedic Systems). Satisfactory zero binding and sensitivity were obtained after an overnight incubation at 4° C.
In order to assay samples for thromboxane A2 receptor antagonist, the same procedure was used, except that 50 μl of sample was used in place of the 50 μl of PBS.
In this regard, for construction of the standard curve and determination of cross-reactivity, standards and cross-reactants were prepared in PBS. Three cross-reactants were examined: the dinor and tetranor, possible metabolites of Compound I, and a related compound, Compound II, which lacks most of the omega side chain (Table 2).
To further characterize the specific structural features (epitope) within Compound I that are recognized by MCTX1, various derivatives of Compound I were tested for their cross-reactivity. The percent cross-reactivity was determined by dividing the ED50 of Compound I into the ED50 of the cross-reactants and multiplying the result by 100. […] Two potential metabolites of Compound I, the dinor and tetranor derivatives, had cross-reactivities of 66% and 17.6%, respectively. Both of these compounds have shortened alpha-side chains and no modifications in their omega-side chain. The extent of cross-reactivityof both alpha-side chain metabolites became less as the alpha-side chain became more truncated. […]

Compound | recognition by MCTX1 (cross-reactivity test) (cross-reactant prepared in PBS) | percent cross-reactivity with MCTX1 [%]
COC(=O)CCC=CCC1C2CCC(O2)C1CN (stereo not drawn) [Compound II] | not recognized by MCTX1 | –
CCCCCCC(=O)NCC(=O)NCC1C2CCC(O2)C1CC=CCC(=O)O (stereo not drawn) [dinor] | – | 66
CCCCCCC(=O)NCC(=O)NC[C@H]1[C@@H](CCC(=O)O)[C@@H]2CC[C@H]1O2 [tetranor] | – | 17.6
